Source: the supplement of paper PMC12463676, “Small-molecule dissolution of stress granules by redox modulation benefits ALS models” (Nature Chemical Biology, 2025)

How the values were obtained:
[1] = compound: NC(=O)CCCCC1CCSS1 [lipoamide]; test: thermal stability z-score vs DMSO; higher = more thermally stabilized by treatment; settings: HeLa, lipoamide concentration 100 µM
Method: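 Cellular thermal proteome profiling in HeLa cells. Cells were treated with 100 µM lipoamide for 1 h, with or without 1 mM arsenate for a further 1 h, then heated to ten temperatures (37-66.3 °C), and soluble protein was quantified by TMT mass spectrometry relative to 0.1% DMSO controls. The thermal stability score (sum of log2 fold changes minus the abundance score) was transformed to a z-score; mean of n = 3 experiments.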

[2] = compound: O=[As]([O-])(O)O.[K+] [potassium arsenate]; test: as above; settings: HeLa; arsenate concentration 1 mM
Method: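 Cellular thermal proteome profiling in HeLa cells treated with 1 mM arsenate for 1 h (DMSO pretreatment), heated to ten temperatures (37-66.3 °C). Soluble protein was quantified by TMT mass spectrometry relative to DMSO controls; the thermal stability score was transformed to a z-score; mean of n = 3 experiments.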

[3] = arsenate co-treatment: 1 mM arsenate 1 h
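Note: each temperature applied for 3 min, abundance score taken as mean log2 fold change at the two lowest temperatures, z-score obtained by mean subtraction and division by SD.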

TUT1 (UniProt Q9H6E5)
Chain of UniProt Q9H6E5 (Q9H6E5 whole entry): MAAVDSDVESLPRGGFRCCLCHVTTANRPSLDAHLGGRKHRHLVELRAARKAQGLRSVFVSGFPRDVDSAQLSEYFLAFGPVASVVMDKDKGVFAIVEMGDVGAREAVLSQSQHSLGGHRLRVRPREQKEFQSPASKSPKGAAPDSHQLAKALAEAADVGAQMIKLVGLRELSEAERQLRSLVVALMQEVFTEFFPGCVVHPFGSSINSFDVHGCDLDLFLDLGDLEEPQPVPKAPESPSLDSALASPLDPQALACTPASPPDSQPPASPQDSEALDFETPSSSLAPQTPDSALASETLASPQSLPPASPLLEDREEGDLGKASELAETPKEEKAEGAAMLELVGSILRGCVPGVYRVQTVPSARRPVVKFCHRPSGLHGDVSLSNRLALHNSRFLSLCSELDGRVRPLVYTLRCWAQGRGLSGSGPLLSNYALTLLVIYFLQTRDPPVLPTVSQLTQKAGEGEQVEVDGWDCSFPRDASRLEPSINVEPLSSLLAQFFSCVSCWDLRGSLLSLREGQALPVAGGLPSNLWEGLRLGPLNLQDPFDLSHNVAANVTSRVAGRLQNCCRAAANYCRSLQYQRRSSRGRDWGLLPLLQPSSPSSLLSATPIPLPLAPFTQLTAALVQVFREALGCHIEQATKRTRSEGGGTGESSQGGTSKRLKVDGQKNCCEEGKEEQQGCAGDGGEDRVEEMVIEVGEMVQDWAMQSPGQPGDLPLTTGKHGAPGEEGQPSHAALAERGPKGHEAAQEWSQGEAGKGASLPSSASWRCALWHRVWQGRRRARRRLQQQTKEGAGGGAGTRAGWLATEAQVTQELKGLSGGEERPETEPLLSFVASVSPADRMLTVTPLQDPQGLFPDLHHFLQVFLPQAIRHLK
thermal stability z-score [1, 3]: 0.0998 | thermal stability z-score ([1]; arsenate co-treatment: none): -0.00913 | thermal stability z-score [2]: -0.479

TVP23C|TVP23B
thermal stability z-score [1, 3]: 0.653 | thermal stability z-score ([1]; arsenate co-treatment: none): 1.19 | thermal stability z-score [2]: 0.27

TWF1 (UniProt Q12792)
thermal stability z-score [1, 3]: 0.503 | thermal stability z-score ([1]; arsenate co-treatment: none): 0.245 | thermal stability z-score [2]: -0.412

TWF2 (UniProt Q6IBS0)
thermal stability z-score [1, 3]: -0.088 | thermal stability z-score ([1]; arsenate co-treatment: none): -0.182 | thermal stability z-score [2]: -0.697

TWISTNB (UniProt Q3B726)
thermal stability z-score [1, 3]: -0.926 | thermal stability z-score ([1]; arsenate co-treatment: none): 0.0342 | thermal stability z-score [2]: -1.57

TXLNA (UniProt P40222)
thermal stability z-score [1, 3]: 0.459 | thermal stability z-score ([1]; arsenate co-treatment: none): 0.0728 | thermal stability z-score [2]: 2.4

TXLNG (UniProt Q9NUQ3)
thermal stability z-score [1, 3]: 0.386 | thermal stability z-score ([1]; arsenate co-treatment: none): 0.0198 | thermal stability z-score [2]: 1.86

TXN2 (UniProt Q99757)
Chain of UniProt Q99757 (Q99757 whole entry): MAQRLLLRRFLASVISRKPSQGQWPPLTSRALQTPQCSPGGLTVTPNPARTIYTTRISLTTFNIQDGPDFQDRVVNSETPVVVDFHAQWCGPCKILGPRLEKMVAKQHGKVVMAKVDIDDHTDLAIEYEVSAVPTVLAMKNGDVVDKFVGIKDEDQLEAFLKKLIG
thermal stability z-score [1, 3]: -0.504 | thermal stability z-score ([1]; arsenate co-treatment: none): 0.00983 | thermal stability z-score [2]: 2.39

TXN (UniProt P10599)
Chain of UniProt P10599 (P10599 whole entry): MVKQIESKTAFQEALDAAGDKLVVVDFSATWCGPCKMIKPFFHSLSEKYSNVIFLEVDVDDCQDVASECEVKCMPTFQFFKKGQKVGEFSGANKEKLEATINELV
thermal stability z-score [1, 3]: 0.913 | thermal stability z-score ([1]; arsenate co-treatment: none): 0.827 | thermal stability z-score [2]: 0.598

TXNDC5 (UniProt Q8NBS9)
Chain of UniProt Q8NBS9 (Q8NBS9 whole entry): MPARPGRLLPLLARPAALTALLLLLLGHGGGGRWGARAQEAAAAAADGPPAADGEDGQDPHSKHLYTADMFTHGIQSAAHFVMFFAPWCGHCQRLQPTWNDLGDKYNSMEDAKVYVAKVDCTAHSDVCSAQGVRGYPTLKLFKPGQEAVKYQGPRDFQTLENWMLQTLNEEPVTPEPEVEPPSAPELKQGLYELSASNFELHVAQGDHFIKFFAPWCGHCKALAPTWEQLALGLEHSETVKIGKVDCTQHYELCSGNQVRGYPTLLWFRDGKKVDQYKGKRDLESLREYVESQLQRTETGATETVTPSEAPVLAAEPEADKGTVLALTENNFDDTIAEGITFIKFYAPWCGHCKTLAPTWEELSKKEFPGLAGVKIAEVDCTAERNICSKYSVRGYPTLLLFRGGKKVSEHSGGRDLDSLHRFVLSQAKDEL
thermal stability z-score [1, 3]: -2.16 | thermal stability z-score ([1]; arsenate co-treatment: none): -1.86 | thermal stability z-score [2]: 0.0646

TXNDC9 (UniProt O14530)
Chain of UniProt O14530 (O14530 whole entry): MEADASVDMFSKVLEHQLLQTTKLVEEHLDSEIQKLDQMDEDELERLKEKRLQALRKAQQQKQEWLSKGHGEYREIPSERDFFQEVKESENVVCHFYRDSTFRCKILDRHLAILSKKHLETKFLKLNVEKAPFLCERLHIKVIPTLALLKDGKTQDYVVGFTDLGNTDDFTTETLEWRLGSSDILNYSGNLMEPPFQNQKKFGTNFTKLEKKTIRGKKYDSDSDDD
thermal stability z-score [1, 3]: -0.0714 | thermal stability z-score ([1]; arsenate co-treatment: none): -0.127 | thermal stability z-score [2]: 0.0909

TXNDC11 (UniProt Q6PKC3)
thermal stability z-score [1, 3]: -0.797 | thermal stability z-score ([1]; arsenate co-treatment: none): -0.984 | thermal stability z-score [2]: 0.425

TXNDC12 (UniProt O95881)
thermal stability z-score [1, 3]: -1.11 | thermal stability z-score ([1]; arsenate co-treatment: none): -1.37 | thermal stability z-score [2]: 0.744

TXNDC15 (UniProt Q96J42)
thermal stability z-score [1, 3]: -1.92 | thermal stability z-score ([1]; arsenate co-treatment: none): -0.609 | thermal stability z-score [2]: 1.16

TXNDC17 (UniProt Q9BRA2)
thermal stability z-score [1, 3]: 0.493 | thermal stability z-score ([1]; arsenate co-treatment: none): 0.408 | thermal stability z-score [2]: 0.728

TXNL1 (UniProt O43396)
Chain of UniProt O43396 (O43396 whole entry): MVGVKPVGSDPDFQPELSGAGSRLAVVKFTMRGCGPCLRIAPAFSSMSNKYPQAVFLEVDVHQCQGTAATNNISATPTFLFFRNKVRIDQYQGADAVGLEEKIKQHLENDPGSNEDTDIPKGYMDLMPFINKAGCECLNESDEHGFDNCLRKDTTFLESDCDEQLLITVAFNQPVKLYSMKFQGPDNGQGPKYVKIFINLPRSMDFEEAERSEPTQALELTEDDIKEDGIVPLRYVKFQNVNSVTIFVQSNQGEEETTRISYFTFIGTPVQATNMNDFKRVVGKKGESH
thermal stability z-score [1, 3]: -0.206 | thermal stability z-score ([1]; arsenate co-treatment: none): -0.576 | thermal stability z-score [2]: 7

TXNL4A (UniProt P83876)
thermal stability z-score [1, 3]: 0.343 | thermal stability z-score ([1]; arsenate co-treatment: none): -0.0818 | thermal stability z-score [2]: -0.461

TXNRD1 (UniProt Q16881)
thermal stability z-score [1, 3]: 1.24 | thermal stability z-score ([1]; arsenate co-treatment: none): 1.25 | thermal stability z-score [2]: 4.21

TXNRD2 (UniProt Q9NNW7)
Chain of UniProt Q9NNW7 (Q9NNW7 whole entry): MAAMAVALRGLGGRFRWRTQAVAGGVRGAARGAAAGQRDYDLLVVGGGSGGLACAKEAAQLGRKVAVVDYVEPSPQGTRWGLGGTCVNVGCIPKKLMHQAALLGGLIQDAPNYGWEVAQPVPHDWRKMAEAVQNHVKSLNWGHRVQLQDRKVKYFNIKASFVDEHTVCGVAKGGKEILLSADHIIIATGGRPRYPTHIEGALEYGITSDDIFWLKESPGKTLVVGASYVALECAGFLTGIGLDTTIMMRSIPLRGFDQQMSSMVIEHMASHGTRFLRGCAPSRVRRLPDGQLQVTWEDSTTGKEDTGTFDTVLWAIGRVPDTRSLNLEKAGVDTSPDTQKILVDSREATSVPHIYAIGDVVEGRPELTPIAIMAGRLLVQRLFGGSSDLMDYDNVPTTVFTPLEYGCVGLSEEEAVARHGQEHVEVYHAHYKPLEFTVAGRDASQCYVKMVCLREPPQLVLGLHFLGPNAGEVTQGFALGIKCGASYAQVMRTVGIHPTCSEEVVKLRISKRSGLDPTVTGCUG
thermal stability z-score [1, 3]: 0.179 | thermal stability z-score ([1]; arsenate co-treatment: none): 0.166 | thermal stability z-score [2]: 4.89

TYMP (UniProt P19971)
thermal stability z-score [1, 3]: 0.856 | thermal stability z-score ([1]; arsenate co-treatment: none): 0.677 | thermal stability z-score [2]: 0.13

TYMS (UniProt P04818)
Chain of UniProt P04818 (P04818 whole entry, looked up): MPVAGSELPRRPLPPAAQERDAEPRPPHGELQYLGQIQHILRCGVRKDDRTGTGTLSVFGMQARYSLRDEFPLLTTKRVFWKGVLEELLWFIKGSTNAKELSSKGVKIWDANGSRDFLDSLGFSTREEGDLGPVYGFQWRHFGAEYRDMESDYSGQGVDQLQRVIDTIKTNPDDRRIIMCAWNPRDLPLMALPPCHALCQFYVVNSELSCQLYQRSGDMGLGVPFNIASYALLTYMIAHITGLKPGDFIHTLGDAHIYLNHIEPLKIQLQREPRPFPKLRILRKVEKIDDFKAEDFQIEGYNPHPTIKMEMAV
thermal stability z-score [1, 3]: 1.42 | thermal stability z-score ([1]; arsenate co-treatment: none): 0.818 | thermal stability z-score [2]: 14

TYRO3 (UniProt Q06418)
Chain of UniProt Q06418 (Q06418 whole entry): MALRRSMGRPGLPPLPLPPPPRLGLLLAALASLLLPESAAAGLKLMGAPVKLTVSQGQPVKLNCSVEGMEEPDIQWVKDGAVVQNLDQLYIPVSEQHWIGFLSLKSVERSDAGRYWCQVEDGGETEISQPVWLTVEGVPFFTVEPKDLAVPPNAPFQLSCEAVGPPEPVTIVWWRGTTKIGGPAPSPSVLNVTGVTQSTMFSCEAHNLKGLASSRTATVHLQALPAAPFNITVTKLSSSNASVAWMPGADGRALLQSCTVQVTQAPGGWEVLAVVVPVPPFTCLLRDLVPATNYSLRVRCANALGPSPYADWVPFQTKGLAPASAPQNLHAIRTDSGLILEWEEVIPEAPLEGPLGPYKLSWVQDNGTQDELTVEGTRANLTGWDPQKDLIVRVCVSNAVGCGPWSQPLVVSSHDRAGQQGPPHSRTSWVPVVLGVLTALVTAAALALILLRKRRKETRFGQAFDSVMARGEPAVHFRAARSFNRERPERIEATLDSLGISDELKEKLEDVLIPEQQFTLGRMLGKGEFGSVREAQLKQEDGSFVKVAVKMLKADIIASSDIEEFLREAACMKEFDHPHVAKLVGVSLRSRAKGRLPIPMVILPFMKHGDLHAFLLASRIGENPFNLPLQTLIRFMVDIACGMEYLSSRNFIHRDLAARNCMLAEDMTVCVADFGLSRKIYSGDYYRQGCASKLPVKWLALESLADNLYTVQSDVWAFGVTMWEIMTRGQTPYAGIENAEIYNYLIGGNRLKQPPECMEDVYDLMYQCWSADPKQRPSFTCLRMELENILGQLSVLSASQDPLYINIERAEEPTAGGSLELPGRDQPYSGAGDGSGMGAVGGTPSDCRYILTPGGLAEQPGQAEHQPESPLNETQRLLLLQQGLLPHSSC
thermal stability z-score [1, 3]: 0.189 | thermal stability z-score ([1]; arsenate co-treatment: none): -0.0901 | thermal stability z-score [2]: -0.136

TYSND1 (UniProt Q2T9J0)
thermal stability z-score [1, 3]: -0.12 | thermal stability z-score ([1]; arsenate co-treatment: none): -0.377 | thermal stability z-score [2]: -0.646

TYW1 (UniProt Q9NV66)
thermal stability z-score [1, 3]: -0.0973 | thermal stability z-score ([1]; arsenate co-treatment: none): 0.228 | thermal stability z-score [2]: 1.04

TYW3 (UniProt Q6IPR3)
Chain of UniProt Q6IPR3 (Q6IPR3 whole entry): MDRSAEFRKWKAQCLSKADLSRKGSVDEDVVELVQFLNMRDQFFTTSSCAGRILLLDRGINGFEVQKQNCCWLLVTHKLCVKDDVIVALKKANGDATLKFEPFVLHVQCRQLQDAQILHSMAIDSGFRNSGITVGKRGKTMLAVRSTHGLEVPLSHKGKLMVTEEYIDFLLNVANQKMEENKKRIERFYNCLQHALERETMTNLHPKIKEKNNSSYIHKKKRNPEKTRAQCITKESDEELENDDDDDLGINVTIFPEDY
thermal stability z-score [1, 3]: -0.419 | thermal stability z-score ([1]; arsenate co-treatment: none): 0.332 | thermal stability z-score [2]: -0.177

TYW5 (UniProt A2RUC4)
Chain of UniProt A2RUC4 (A2RUC4 whole entry): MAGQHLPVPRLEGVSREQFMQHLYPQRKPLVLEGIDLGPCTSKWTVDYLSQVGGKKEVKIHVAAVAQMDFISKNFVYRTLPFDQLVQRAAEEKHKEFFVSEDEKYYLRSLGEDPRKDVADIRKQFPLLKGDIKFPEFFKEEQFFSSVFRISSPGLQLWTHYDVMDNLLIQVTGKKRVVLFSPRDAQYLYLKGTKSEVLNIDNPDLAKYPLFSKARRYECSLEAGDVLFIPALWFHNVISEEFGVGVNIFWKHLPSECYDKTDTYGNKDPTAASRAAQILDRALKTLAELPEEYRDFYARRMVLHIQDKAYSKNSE
thermal stability z-score [1, 3]: 0.502 | thermal stability z-score ([1]; arsenate co-treatment: none): 0.336 | thermal stability z-score [2]: 0.66

U2AF1L5|U2AF1
thermal stability z-score [1, 3]: -0.511 | thermal stability z-score ([1]; arsenate co-treatment: none): -0.0589 | thermal stability z-score [2]: -1.4

U2AF2 (UniProt P26368)
thermal stability z-score [1, 3]: -0.241 | thermal stability z-score ([1]; arsenate co-treatment: none): -0.169 | thermal stability z-score [2]: -1.31

U2SURP (UniProt O15042)
thermal stability z-score [1, 3]: 0.962 | thermal stability z-score ([1]; arsenate co-treatment: none): 0.428 | thermal stability z-score [2]: 0.507

UACA (UniProt Q9BZF9)
thermal stability z-score [1, 3]: -0.163 | thermal stability z-score ([1]; arsenate co-treatment: none): -0.0805 | thermal stability z-score [2]: 0.02

UAP1 (UniProt Q16222)
Chain of UniProt Q16222 (Q16222 whole entry): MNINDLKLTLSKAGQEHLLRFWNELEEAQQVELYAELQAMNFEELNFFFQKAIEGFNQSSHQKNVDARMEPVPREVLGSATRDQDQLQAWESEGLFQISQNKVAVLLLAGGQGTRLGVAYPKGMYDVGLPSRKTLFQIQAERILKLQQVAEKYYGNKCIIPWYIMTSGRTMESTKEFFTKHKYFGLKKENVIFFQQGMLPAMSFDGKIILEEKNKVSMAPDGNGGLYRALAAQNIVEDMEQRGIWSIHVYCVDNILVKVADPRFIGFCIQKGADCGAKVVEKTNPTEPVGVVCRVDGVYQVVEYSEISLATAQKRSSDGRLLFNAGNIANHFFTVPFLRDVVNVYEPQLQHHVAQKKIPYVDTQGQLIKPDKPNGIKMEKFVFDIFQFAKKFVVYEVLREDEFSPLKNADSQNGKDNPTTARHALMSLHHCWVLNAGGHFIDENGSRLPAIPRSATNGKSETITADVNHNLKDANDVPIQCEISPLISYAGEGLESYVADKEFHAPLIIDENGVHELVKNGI
thermal stability z-score [1, 3]: 0.373 | thermal stability z-score ([1]; arsenate co-treatment: none): 0.0722 | thermal stability z-score [2]: -0.553

UAP1L1 (UniProt Q3KQV9)
thermal stability z-score [1, 3]: 0.536 | thermal stability z-score ([1]; arsenate co-treatment: none): 0.556 | thermal stability z-score [2]: -0.793

UBA1 (UniProt P22314)
thermal stability z-score [1, 3]: -0.526 | thermal stability z-score ([1]; arsenate co-treatment: none): 0.213 | thermal stability z-score [2]: -0.439

UBA2 (UniProt Q9UBT2)
thermal stability z-score [1, 3]: -0.378 | thermal stability z-score ([1]; arsenate co-treatment: none): -0.166 | thermal stability z-score [2]: -0.426

UBA3 (UniProt Q8TBC4)
thermal stability z-score [1, 3]: -0.466 | thermal stability z-score ([1]; arsenate co-treatment: none): -0.282 | thermal stability z-score [2]: -0.0439

UBA5 (UniProt Q9GZZ9)
thermal stability z-score [1, 3]: -0.815 | thermal stability z-score ([1]; arsenate co-treatment: none): -0.52 | thermal stability z-score [2]: 0.622
